According to US6573253B2, “Methods for the administration of amifostine and related compounds” (MedImmune Oncology Inc., priority 1997, dated 2003):
Values joined by “and” are separate entries in the source; they are usually repeats but may differ in a detail not shown here. Equal entries are not always repeated. Where two headings read alike, the source gives them in different places. Blank lines part the entries; values can stand above or below the compound they belong to.

Assays:
[1] = test system: MDS; test: Subcutaneous amifostine in MDS patients: hematologic responses and adverse effects; format: in vivo, human
Text: All patients in the study had MDS and were diagnosed as having one of the following subtypes: refractory anemia, refractory anemia with ring sideroblasts, refractory anemia with excess blasts or refractory anemia with excess blasts in transformation. In addition, the patients had thrombocytopenia (platelets <100,000/μl), neutropenia (ANC or absolute neutrophil count<1500/μl) or a hemoglobin untransfused <10 g/dl and/or were transfusion-dependent as defined by requiring at least 4 units of RBC in the 10 weeks prior to entry.
(§1) Blood pressure was monitored before treatment and after the first dose at 30 minute intervals for up to 90 minutes. […] At least three patients were treated with each dose. […] Hematologic responses to treatment were evaluated by measuring neutrophil count (ANC), platelet count, erythroid response including hemoglobin levels and reticulocyte count, and in vitro colony formation.

[2] = test system: Bone marrow progenitor cells; test: In vitro colony formation (CFU-GEMM, BFU-E, CFU-GM) of bone marrow progenitor cells from treated MDS patients, methylcellulose assays; format: cell-based, human; conditions: bone marrow progenitor cells from MDS patients after s.c. amifostine
Procedure: as §1
Bone marrow progenitor cells were recovered from the treated patients and assayed for their ability to form CFU-GEMM, BFU-E and CFU-GM colonies in standard methylcellulose assays.

[3] = test system: mucositis; test: Rat RT model: mucosal radioprotection by IV or SC amifostine at various times before 15.3 Gy head and neck irradiation (mucositis score); format: in vivo; conditions: rats, 200 mg/kg (1200 mg/m^2), given up to 4 hours prior to radiation therapy (15.3 Gy)
Procedure: A rat RT model was used to examine the protective effects of amifostine following IV as well as subcutaneous (SC) administration, and to investigate the length of time between amifostine administration and RT. In these experiments, rats were given 200 mg/kg (1200 mg/m^2) of amifostine IV or SC, and their head and neck regions exposed to 15.3 Gy of gamma irradiation at various times following amifostine administration. For 10 days after treatment, the rats were weighed and the oral cavities of the rats were examined for signs of mucositis. Mucosal erythema and mucosal edema were scored according to 0-5 and 0-2 scales, respectively, with the scores added to indicate overall mucositis.

[4] = human, in vivo
Procedure: All subjects were sequestered at the study site from the evening before the administration of the first dose of study drug until the final whole blood sample was obtained.
Blood samples (5 to 7 mL each) were collected either by venipuncture or indwelling venous catheter (IVC) heparin lock. If IVC was used, it was inserted in the arm opposite the infusion site. […] For either line, the first 3 to 5 cc of blood were discarded (void volume) prior to blood collection.
To prevent further oxidation of WR-1065, PCA/EDTA was added to the samples prior to centrifugation. Because PCA/EDTA ruptures the cellular content of the blood, the samples were centrifuged for a longer period of time to prevent contamination/metabolism of the active metabolite. Consequently, only the clear supernatant (serum) was used for analysis of WR-1065. In contrast, no PCA/EDTA was added to the blood samples designated for analysis of the parent drug; therefore, plasma samples were prepared for analysis of the parent drug.
WINNONLIN, the WINDOWS version of PCNONLIN, was used for the determination of pharmacokinetic parameters for each subject following each route of administration. Non-compartmental modelling of the data was performed.
AUCs were calculated using extrapolation according to a straightline from the last non-zero point.
The AUCs were then analyzed using an analysis of variance (ANOVA) model with route, period and subject as variables. Sequence was not included in the model as this variable was uniquely determined by route and period. The confidence interval on the ratio of the subcutaneous or oral route to the intravenous route was calculated using the mean square error from the entire ANOVA model.

[5] = test system: radiation-induced xerostomia
Procedure: In the phase II study all patients were undergoing radiation therapy for histologically confirmed squamous cell carcinoma of the head and neck region. Patients were allowed to enter the study following surgery with curative intent as soon as the wound has healed but no later than 12 weeks post operatively.
Blood pressure and pulse were obtained prior to subcutaneous administration and repeated 10 minutes following administration. An IV was available to treat hypotension if it occurred. Patients received full supportive care including antiemetics, antibiotics, transfusions of blood and blood products, and the like when needed. Prophylactic antiemetics were not administered. If patients experienced nausea and vomiting they were administered either prochlorperazine, 10 mg PO, 30 minutes prior to therapy, repeating every 4 to 6 hours following therapy as needed or ondansetron, 8 mg PO, 30 minutes prior to therapy, repeating every 4 hours following therapy as needed.
Radiation therapy was provided with linear accelerators with appropriate photon and electron boosting to the nodes or Cobalt 60. The appropriate photon energy was based on optimizing the radiation therapy dose distribution within the target volume and minimizing dose to normal tissue. Patients were reproducibly mobilized and radio-opaque markers were used to delineate the extent of nodal disease and, where possible, the primary tumor. All fields were treated once daily at 1.8-2.0 Gy per fraction, five days per week to a total dose of:
Xerostomia was graded in each subject according to the RTOG criteria.

[6] = test system: radiation-induced xerostomia; conditions: IV Amifostine + RT, cited from earlier work
[7] = cited from earlier work
[8] = Phase I three-way crossover study: safety assessments / adverse events (NCI Common Toxicity Criteria)
Procedure: If hypotension occurred, the subject was to receive a rapid infusion of 500 mL normal saline and was to be kept supine or in the Trendelenburg position until blood pressure returned to baseline. During this time, blood pressure was monitored every 3 minutes.
All subjects who had received at least one dose of protocol therapy were considered evaluable for safety. […] Toxicity was based on National Cancer Institute (NCI) Common Toxicity Criteria.
Because this was a crossover study to be performed on three successive days, toxicities were assigned to the route of administration on the day the toxicity occurred. A full nonparametric crossover model (likelihood of ratio test) was used to assess toxicities which corrected for period and sequence effects. A PROC CATMOD of SAS@ was used for this analysis.

[9] = test system: radiation-induced mucositis; test: Radiation-induced mucositis model, inferior lip of mice (Parkins et al.): body weight, mucosal erythema and edema scores; conditions: for Erythema (score) / Oedema (score): individual mice and Mean
[10] = MDS patients, s.c. 500 mg once/day, 17 evaluable
[11] = SC amifostine, head and neck cancer patients
[12] = intravenous, cancer patients, plasma
[13] = Intravenous 200 mg/m^2, N = 12, table cells give subject numbers
[14] = Intravenous 200 mg/m^2, N = 12, table cells give subject numbers, listed as amifostine
[15] = Oral 500 mg, N = 12, table cells give subject numbers
[16] = Amifostine (l.p.) at 200 mg/kg + Irradiation (16.5 Gy), day 6 after treatment, 200 mg/kg
[17] = Amifostine (l.p.) at 200 mg/kg + Irradiation (16.5 Gy), day 7 after treatment, 200 mg/kg
[18] = Amifostine (l.p.) at 200 mg/kg + Irradiation (16.5 Gy), day 13 after treatment, 200 mg/kg
[19] = Amifostine (l.p.) at 200 mg/kg + Irradiation (16.5 Gy), day 14 after treatment, 200 mg/kg
[20] = Amifostine (l.p.) at 400 mg/kg + Irradiation (16.5 Gy), day 13 after treatment, 400 mg/kg
[21] = Amifostine (l.p.) at 400 mg/kg + Irradiation (16.5 Gy), day 14 after treatment, 400 mg/kg
[22] = Amifostine (s.c.) at 200 mg/kg + Irradiation (16.5 Gy), day 9 after treatment, 200 mg/kg
[23] = Amifostine (s.c.) at 400 mg/kg + Irradiation (16.5 Gy), day 14 after treatment, 400 mg/kg

time after administration at which concentration dropped below 10 μM, amifostine (parent drug plus active metabolite) ([4]; iv): 45 min
time after administration at which concentration dropped below 10 μM, amifostine (parent drug) ([4]; iv): approximately 30 minutes
time after administration at which concentration dropped below 1.0 μM, amifostine (parent drug plus active metabolite) ([4]; po): 10 to 13 min
time after administration at which concentration fell below 10 μM, amifostine (parent drug plus active metabolite) ([4]; sc): approximately 50 minutes
time after administration at which concentration fell below 10 μM, amifostine (parent drug) ([4]; sc): approximately 45 minutes
peak levels (maximum whole blood concentration) ([4]; male, iv): about 100 μM
AUC of Combined (parent drug and active metabolite), 500 mg Oral (PO) ([4]; male, po): 0 µM·min
maximum blood levels ([4]; male, sc): about 12 μM
time to maximum and sustained whole blood concentration ([4]; male, sc): 15 to 45 min
Grade 3 hypotension [5, 11]: no reports
Grade 3 nausea/vomiting [5, 11]: no reports
SMILES: NCCCNCCSP(=O)(O)O [Amifostine, S-2-(3-aminopropylamino)ethyl dihydrogen phosphorothioate]
Platelet response, patients with >50,000/μl: Responders (number) ([1]; 3 evaluable): 3
Platelet response, patients with >50,000/μl: Responders (percent) ([1]; 3 evaluable): 100%
BM Blasts ↑ (RAEB): patients (number; RAEB-t, AML) ([1]; 5 evaluable): 2 (RAEB-t, AML)
Platelet response, patients with <50,000/μl: Responders (number) ([1]; 6 evaluable): 0
Hemoglobin >1.5 g/dl ↑: Responders (number) ([1]; 7 evaluable): 1
Ring Sideroblast ↓: Responders (number) ([1]; 7 evaluable): 3
ANC response, patients with ANC < 1000: Responders (number) ([1]; 8 evaluable): 3
ANC response, patients with ANC < 1000: Responders (percent) ([1]; 8 evaluable): 38.5%
ANC response, patients with ANC > 1000: Responders (number) ([1]; 9 evaluable): 2
ANC response, patients with ANC > 1000: Responders (percent) ([1]; 9 evaluable): 22%
Platelets ≧ 50% ↑: Responders (number) ([1]; 9 evaluable): 3
Platelets ≧ 50% ↑: Responders (percent) ([1]; 9 evaluable): 33%
RBC Transfusion (≦50% ↓): Responders (number) ([1]; 13 evaluable): 0
Retic count ≧ 50% ↑: Responders (number) ([1]; 14 evaluable): 10
Retic count ≧ 50% ↑: Responders (percent) ([1]; 14 evaluable): 71%
ANC ≧ 50% ↑: Responders (number) [1, 10]: 5
ANC ≧ 50% ↑: Responders (percent) [1, 10]: 29%
fatigue (grade I/II): patients ([1]; MDS patients, s.c. amifostine): four patients
local reaction (grade III): patients ([1]; MDS patients, s.c. amifostine): one patient
metallic taste (grade I/II): patients ([1]; MDS patients, s.c. amifostine): one patient
nausea (grade I/II): patients ([1]; MDS patients, s.c. amifostine): one patient
rash (grade I/II): patients ([1]; MDS patients, s.c. amifostine): six patients
vomiting (grade I/II): patients ([1]; MDS patients, s.c. amifostine): one patient
formation of CFU-GEMM, BFU-E and CFU-GM colonies [2]: produced bone marrow colonies
radioprotection (mucositis) of SC versus IV administration [3]: comparable to IV administration
rate of acute xerostomia with subcutaneous versus IV amifostine ([5]; SC amifostine + RT): comparable rate
≧Grade 2 acute xerostomia Incidence, All patients ([6]; 200 mg/m^2 3 minute infusion 15 to 30 minutes before RT, N 148): 51%
≧Grade 2 acute xerostomia Incidence, Patients receiving ≧60 Gy RT ([6]; 200 mg/m^2): 51%
≧Grade 2 acute xerostomia, Median cumulative RT dose to onset ([6]; 200 mg/m^2): 60 Gy
≧Grade 2 acute xerostomia, Median time to onset ([6]; 200 mg/m^2): 45 days
amifostine remaining in the plasma ([7]; 6 minutes after intravenous administration): Less than 10%
distribution half-life [7, 12]: less than 1 minute
elimination half-life [7, 12]: approximately 9 minutes
Headache: subjects who reported the adverse event [8, 13]: 1008
Hypotension: subjects who reported the adverse event [8, 13]: 1003
Lightheadedness: subjects who reported the adverse event [8, 13]: 1003
Somnolence: subjects who reported the adverse event [8, 13]: 1008
Vomiting: subjects who reported the adverse event [8, 13]: 1008
Hypotension: subjects who reported the adverse event [8, 14]: one subject
Nausea: subjects who reported the adverse event [8, 14]: five subjects
Vomiting: subjects who reported the adverse event [8, 14]: one subject
Hypotension: subjects who reported the adverse event [8, 15]: 1003
Lightheadedness: subjects who reported the adverse event [8, 15]: 1003
Hypotension: subjects who reported the adverse event ([8]; Oral 500 mg, N = 12, table cells give subject numbers, listed as amifostine): one subject
incidence of hypotension ([8]; Subcutaneous 500 mg, N = 12): no incidence
Nausea: subjects who reported the adverse event ([8]; Subcutaneous 500 mg, N = 12, table cells give subject numbers): 1002
Nausea: subjects who reported the adverse event ([8]; Subcutaneous 500 mg, N = 12, table cells give subject numbers, listed as amifostine): one subject
Grade 2 or higher laboratory toxicity (NCI Common Toxicity Criteria) ([8]; after last dose, 12 subjects): none of the subjects
serum creatinine value, Subject 1010 ([8]; after last dose, baseline 0.90 mg/dL, reference range 0.70 to 1.40 mg/dL): 0.60 mg/dL
changes in physical examination, weight and vital signs ([8]; after the last dose of amifostine): No remarkable changes
severity of adverse events ([8]; all three routes): mild in severity, transient
discontinuation due to adverse events ([8]; all three routes, 12 subjects): No subject discontinued
subjects who reported adverse events ([8]; intravenous amifostine, 12 subjects): Five subjects
subjects who reported adverse events ([8]; oral amifostine, 12 subjects): one subject
tolerability ([8]; regardless of route of administration): well tolerated
subjects who reported adverse events ([8]; subcutaneous amifostine, 12 subjects): one subject
Erythema (score) [9, 16]: 0.5 and 0
Oedema (score) [9, 16]: 1 and 0 and 0.5
Erythema (score) [9, 17]: 0.5 and 0
Oedema (score) [9, 17]: 1 and 0 and 0.5
Oedema (score) ([9]; Amifostine (l.p.) at 200 mg/kg + Irradiation (16.5 Gy), day 12 after treatment, 200 mg/kg): 2 and 1 and 0.5
Erythema (score) [9, 18]: 0.5 and 2 and 1
Oedema (score) [9, 18]: 0.5 and 2 and 1
Erythema (score) [9, 19]: 0.5 and 2 and 1 and 0
Oedema (score) [9, 19]: 0.5 and 2 and 1 and 0
Oedema (score) ([9]; Amifostine (l.p.) at 400 mg/kg + Irradiation (16.5 Gy), day 6 after treatment, 400 mg/kg): 0.5 and 0
Oedema (score) ([9]; Amifostine (l.p.) at 400 mg/kg + Irradiation (16.5 Gy), day 7 after treatment, 400 mg/kg): 0.5 and 0
Erythema (score) ([9]; Amifostine (l.p.) at 400 mg/kg + Irradiation (16.5 Gy), day 12 after treatment, 400 mg/kg): 3 and 1 and 2
Erythema (score) [9, 20]: 0 and 0.5
Oedema (score) [9, 20]: 0.5 and 0
Erythema (score) [9, 21]: 0 and 0.5
Oedema (score) [9, 21]: 0.5 and 0
Erythema (score) ([9]; Amifostine (s.c.) at 200 mg/kg + Irradiation (16.5 Gy), day 7 after treatment, 200 mg/kg): 0 and 0.5
Erythema (score) [9, 22]: 0.5 and 1 and 3
Oedema (score) [9, 22]: 0.5 and 1 and 2
Erythema (score) ([9]; Amifostine (s.c.) at 200 mg/kg + Irradiation (16.5 Gy), day 13 after treatment, 200 mg/kg): 1 and 0.5 and 2
Oedema (score) ([9]; Amifostine (s.c.) at 200 mg/kg + Irradiation (16.5 Gy), day 14 after treatment, 200 mg/kg): 0.5 and 1 and 0
Oedema (score) ([9]; Amifostine (s.c.) at 400 mg/kg + Irradiation (16.5 Gy), day 6 after treatment, 400 mg/kg): 1 and 0.5 and 0
Oedema (score) ([9]; Amifostine (s.c.) at 400 mg/kg + Irradiation (16.5 Gy), day 7 after treatment, 400 mg/kg): 0.5 and 0
Erythema (score) ([9]; Amifostine (s.c.) at 400 mg/kg + Irradiation (16.5 Gy), day 13 after treatment, 400 mg/kg): 1 and 0 and 0.5
Erythema (score) [9, 23]: 1 and 0 and 0.5
Oedema (score) [9, 23]: 1 and 0 and 0.5
mucosal edema scores as compared to saline plus irradiation ([9]; both injection methods (i.p., s.c.)): decreased
average erythema score as compared to saline plus irradiation ([9]; i.p and s.c. administration): decreased
reduction in body weight after irradiation ([9]; i.p. or s.c. injection of amifostine, irradiated mice): prevented
effect of increasing the dose from 200 mg/kg to 400 mg/kg ([9]; irradiated mice): minimal additional benefits
efficacy at the time points of maximal adverse effects (day 9 body weight, day 12 erythema and edema) ([9]; subcutaneous, 200 mg/kg): highest efficacy

absolute bioavailability of the active metabolite [4]: 0.53
time after administration at which concentration fell below 5 μM, WR-1065 ([4]; iv): approximately 45 minutes
time after administration at which concentration fell below 5 μM, WR-1065 ([4]; sc): approximately 60 minutes
peak levels (maximum whole blood concentration) ([4]; male, iv): about 23 μM
maximum blood levels ([4]; male, sc): ~4 µM
time to maximum and sustained whole blood concentration ([4]; male, sc): 15 to 45 min
SMILES: NCCCNCCS [WR-1065, 2-[3-aminopropylamino]ethanethiol]
